Data: patent publication US4732977A, “Carbapenem antibiotics” (priority 1986, dated 1988)
≈ marks a conversion by molar mass, not a printed value. Like-named read-outs stand apart in the source and are kept apart here. Each block holds one compound with its values, some of them ahead of it.

Assays:
[1] = Half-life (stability) in buffer solution; type: physicochemical; conditions: for half-life at 100 µM: 10^-4 M
Protocol: T1/2 =9.8 h (measured at a concentration of 10^-4 M in phosphate buffer pH 7.4 at 36.8° C.).
UV (phosphate buffer, pH 7.4) λmax 294 nm (ε=8,202); T1/2 (phosphate buffer, pH 7.4, M=0.967, T=37° C.) 9.1 h.
(c of 10^-4 M in pH 7.4 phosphate buffer.
.tau.1/2 =20.8 h measured at 37° C. in buffer (pG 7.4) for a concentration of 10^-4 M.
.tau.1/2 =12.5 h measured at 37° C. in buffer pH 7.4 for a concentration of 10^-4 M.
h (measured for a concentration of 10^-4 M at 36.8° C. in buffer pH 7.4).
.tau.1/2 =26.0 h (measured for a concentration of 10^-4 M at 36.8° C. in buffer pH 7.4).
.tau.1/2 =16.6 h (measured at 36.8° C., pH 7.4 for a concentration of 10^-4 M) and (5R, 6S) 6-(1R-hydroxyethyl)7-oxo-3-[1,2,6-trimethylpyridinium-4-yl)methylthio]-1-azabicyclo[3.2.0 hept-2-ene-2-carboxylate, 0.010 g, 0.7%;
.tau.1/2 =11.6 h (measured for a concentration of 10^-4 M at 36.8° C. in buffer pH 7.4).
.tau.1/2 =13.4 h (measured for a concentration of 10^-4 M at 36.8° C. in buffer pH 7.4).
.tau.1/2 =14.4 h (measured for a concentration of 10^-4 M at 36.8° C. in buffer pH 7.4).
T 1/2: 10.2 h (biological buffer).
.tau.1/2 =10.2 h measured at 36.8° C. for a concentration of 10^-4 M in buffer pH 7.4.

[2] = tested on: P. vulgaris A21559; test: M.I.C., tube dilution; type: cell-based; conditions: Proteus vulgaris, A21559, overnight incubation at 37° C., Nutrient Broth; read-out: MIC
[3] = tested on: S. faecalis A20688; test: M.I.C., tube dilution; type: cell-based; conditions: Enterococcus faecalis, A20688, overnight incubation at 37° C., Nutrient Broth; read-out: MIC
[4] = tested on: P. aeruginosa A21213; test: M.I.C., tube dilution; type: cell-based; conditions: Pseudomonas aeruginosa
[5] = tested on: S. pyogenes A-9604; test: M.I.C., tube dilution; type: cell-based; conditions: Streptococcus pyogenes, A9604; overnight incubation at 37° C., Nutrient Broth; read-out: MIC
[6] = tested on: S. pneumoniae A-9585; test: M.I.C., tube dilution; type: cell-based; conditions: Streptococcus pneumoniae, A9585; overnight incubation at 37° C., Nutrient Broth; read-out: MIC
[7] = Blood levels in mice after intramuscular administration; conditions: mouse, blood, im, 20 mg/kg;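 further: compounds dissolved in 0.1 M phosphate buffer at pH 7, data from one experiment using four mice for each compound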
Text: Compounds were solubilized in 0.1 M phosphate buffer pH 7.
a single test; 4 mice used per compound.
Compounds were solubilized in 0.1 M phosphate buffer, pH 7.
on a single test; 4 mice per compound.

[8] = tested on: S. aureus A-9537; test: M.I.C., tube dilution; type: cell-based; conditions: Staphylococcus aureus, A9537; +50% serum; read-out: MIC
[9] = biological buffer, read-out: T 1/2 (half-life in solution) (converted)
[10] = (phosphate) buffer pH 7.4, 36.8° C., read-out: T1/2 (half-life in solution) (converted)
[11] = (phosphate) buffer pH 7.4, 37° C., read-out: half-life in solution (converted)

Structure (SMILES): C[C@@H](O)[C@H]1C(=O)N2C(C(=O)[O-])=C(SCc3cs[n+](C)n3)C[C@H]12 [Example 16, (5R,6S) 6-(1R-hydroxyethyl)-3-(2-methyl-1,2,3-thiadiazolium-4-ylmethylthio)-7-oxo-1-azabicyclo[3.2.0]hept-2-ene-2-carboxylate]
MIC [2]: 0.03 µg/mL (≈ 0.0879 µM) | half-life at 100 µM [1, 10]: 9.8 h | MIC [3]: 1 µg/mL (≈ 2.93 µM) | MIC ([4]; A21213): 0.13 µg/mL (≈ 0.381 µM)

Structure (SMILES): C[C@@H](O)[C@H]1C(=O)N2C(C(=O)[O-])=C(SCc3n(Cc4ccccc4)cc[n+]3C)C[C@H]12 [Example 13, 3-(N Methyl-N'-benzylimidazole-2-yl-methanethio)-6α-[1-(R)-hydroxyethyl]-7-oxo-1-azabicyclo(3.2.0)hept-2-ene-2-carboxylate]
MIC [5]: 0.0005 µg/mL (≈ 0.00121 µM) | MIC [2]: 0.008 µg/mL (≈ 0.0193 µM) | MIC [6]: 0.0005 µg/mL (≈ 0.00121 µM) | AUC [7]: 6400 ng·h/mL | Cmax [7]: 14800 ng/mL | half-life [7]: 0.183 h | MIC ([4]; A21213, overnight incubation at 37° C., Nutrient Broth, read-out: MIC): 2 µg/mL (≈ 4.84 µM)

Structure (SMILES): Cc1cc(C)[n+](C)c(CSC2=C(C(=O)[O-])N3C(=O)[C@H]([C@@H](C)O)[C@H]3C2)c1 [(5R,6S) 6-(1R-hydroxyethyl)-7-oxo-3-[(1,4,6-trimethylpyridinium-2-yl)methylthio]-1-azabicyclo[3.2.0]hept-2-ene-2-carboxylate]
half-life at 100 µM [1, 10]: 16.6 h

Structure (SMILES): Cc1cccc(CSC2=C(C(=O)[O-])N3C(=O)[C@H]([C@@H](C)O)[C@H]3C2)[n+]1C [Example 26, (5R,6S) 3-[(1,6-dimethylpyridinium-2-yl)methylthio]-6-(1R-hydroxyethyl)-7-oxo-1-azabicyclo[3.2.0]hept-2-ene-2-carboxylate]
half-life at 100 µM [1, 11]: 12.5 h

Structure (SMILES): C[C@@H](O)[C@H]1C(=O)N2C(C(=O)[O-])=C(SCc3scc[n+]3C)C[C@H]12 [Example 11, 3-[2-(N-Methylthiazolium)methylthio]-6α-[1-(R)-hydroxyethyl]-7-oxo-1-azabicyclo(3.2.0)hept-2-ene-2-carboxylate]
MIC [2]: 0.03 µg/mL (≈ 0.0881 µM) | AUC [7]: 7400 ng·h/mL | Cmax [7]: 14900 ng/mL | half-life [7]: 0.183 h | MIC [3]: 0.5 µg/mL (≈ 1.47 µM)

Structure (SMILES): Cc1cccc(CSC2=C(C(=O)[O-])N3C(=O)[C@H]([C@@H](C)O)C3[C@H]2C)[n+]1C (stereo in doubt) [Example 25, (5R,6S) 3-[(1,6-dimethylpyridinium-2-yl)methylthio]-6-(1R-hydroxyethyl)-4R-methyl-7-oxo-1-azabicyclo[3.2.0]hept-2-ene-2-carboxylate]
half-life at 100 µM [1, 11]: 20.8 h

Structure (SMILES): C[C@@H](O)[C@H]1C(=O)N2C(C(=O)[O-])=C(SCc3n(C)nc[n+]3C)C[C@H]12 [Example 19, 3-[5-(1,4-dimethyl-1,2,4-triazolium)-methanethio]-6α-[1-(R)-hydroxyethyl]-7-oxo-1-azabicyclo[3.2.0]hept-2-ene-2-carboxylate]
MIC [8]: 0.008 µg/mL (≈ 0.0236 µM) | MIC [2]: 0.016 µg/mL (≈ 0.0473 µM) | AUC [7]: 15100 ng·h/mL | Cmax [7]: 27000 ng/mL | half-life [7]: 0.278 h | half-life ([1]; phosphate buffer, pH 7.4, M=0.967, T=37° C., read-out: T1/2 (half-life in solution) (converted)): 9.1 h

Structure (SMILES): Cc1cc(CSC2=C(C(=O)[O-])N3C(=O)[C@H]([C@@H](C)O)[C@H]3C2)cc(C)[n+]1C [(5R,6S) 6-(1R-hydroxyethyl)-7-oxo-3-[(1,2,6-trimethylpyridinium-4-yl)methylthio]-1-azabicyclo[3.2.0]hept-2-ene-2-carboxylate]
half-life at 100 µM [1, 10]: 11.6 h

Structure (SMILES): Cc1ccc(CSC2=C(C(=O)[O-])N3C(=O)[C@H]([C@@H](C)O)C3[C@H]2C)c[n+]1C (stereo in doubt) [Example 34, (5R,6S) 3-[(1,6-dimethylpyridinium-3-yl)methylthio]-6-(1R-hydroxyethyl)-4R-methyl-7-oxo-1-azabicyclo[3.2.0]hept-2-ene-2-carboxylate]
half-life at 100 µM [1, 10]: 27.8 h

Now from value to compound:

half-life [1, 9]: 15.2 h
Structure (SMILES): C[C@@H](O)[C@H]1C(=O)N2C(C(=O)[O-])=C(SCc3cn(C)[n+](C)c3)C[C@H]12 [Example 47]

half-life at 100 µM [1, 10]: 14.4 h
Structure (SMILES): Cc1ccc(CSC2=C(C(=O)[O-])N3C(=O)[C@H]([C@@H](C)O)[C@H]3C2)c[n+]1C [Example 38, (5R,6S) 3-[(1,6-dimethylpyridinium-3-yl)methylthio]-6-(1R-hydroxyethyl)-7-oxo-1-azabicyclo[3.2.0]hept-2-ene-2-carboxylate]

half-life at 100 µM [1, 10]: 10.2 h
Structure (SMILES): C#CCC[n+]1ccccc1CSC1=C(C(=O)[O-])N2C(=O)[C@H]([C@@H](C)O)[C@H]2C1 [Example 53, (5R,6S) 3[(1-{but-3-yn-1-ylpyridinium-2-yl)}methylthio]-6-(1R-hydroxyethyl)-7-oxo-1-azabicyclo[3.2.0]hept-2-ene-2-carboxylate]

half-life ([1]; biological buffer, unit inferred, read-out: T1/2 (half-life in solution) (converted)): 12.3 h
Structure (SMILES): C[C@@H](O)[C@H]1C(=O)N2C(C(=O)[O-])=C(SCc3cncc[n+]3C)[C@H](C)[C@H]12 [Example 46, (5R,6S)-6-(1R-Hydroxyethyl)-4R-methyl-3-[(1-methyl-1,4-pyrazinium-2-yl)-methylthio]-7-oxo-1-azabicyclo[3.2.0]-hept-2-ene-2-carboxylate]

half-life [1, 9]: 10.2 h
Structure (SMILES): C[C@@H](O)[C@H]1C(=O)N2C(C(=O)[O-])=C(SCc3cncc[n+]3C)C[C@H]12 [Example 45, (5R,6S)-6-(1R-Hydroxyethyl)-3-[(1-methyl-1,4-pyraziinium-2-yl)methylthio]-7-oxo-1-azabicyclo(3.2.0)-hept-2-ene-2-carboxylate]

half-life at 100 µM ([1]; phosphate buffer, 36.7° C., read-out: t 1/2 (half-life in solution) (converted)): 22.3 h
Structure (SMILES): Cc1cc(C)[n+](C)c(CSC2=C(C(=O)[O-])N3C(=O)[C@H]([C@@H](C)O)C3[C@H]2C)c1 (stereo in doubt) [Example 51A, (5R,6S) 6-(1R-Hydroxyethyl)-4R-methyl-7-oxo-3-[(1,4,6-trimethylpyridinium-2-yl)-methylthio]-1-azabicyclo[3.2.0]hept-2-ene-2-carboxylate]

half-life at 100 µM [1, 10]: 9.9 h
Structure (SMILES): COCC[n+]1ccccc1CSC1=C(C(=O)[O-])N2C(=O)[C@H]([C@@H](C)O)[C@H]2C1 [Example 52, (5R,6S) 6-(1R-hydroxyethyl)-3-[{1-(2-methoxyethyl)pyridinium-2-yl}methylthio]-7-oxo-1-azabicyclo[3.2.0]hept-2-ene-2-carboxylate]

half-life at 100 µM [1, 11]: 19 h
Structure (SMILES): Cc1c(CSC2=C(C(=O)[O-])N3C(=O)[C@H]([C@@H](C)O)C3[C@H]2C)sc[n+]1C (stereo in doubt) [Example 54, (5R,6S) 3-[(3,4-Dimethylthiazolium-5-yl)methylthio]-6-(1'R-hydroxyethyl)-4R-methyl-7-oxo-1-azabicyclo[3.2.0]hept-2-ene-2-carboxylate]

half-life at 100 µM [1, 10]: 26 h
Structure (SMILES): Cc1cc(CSC2=C(C(=O)[O-])N3C(=O)[C@H]([C@@H](C)O)C3[C@H]2C)c[n+](C)c1 (stereo in doubt) [Example 35, (5R,6S) 3-[(1,5-dimethylpyridinium-3-yl)methylthio]-6-(1R-hydroxyethyl)-4R-methyl-7-oxo-1-azabicyclo[3.2.0]hept-2-ene-2-carboxylate]

half-life at 100 µM [1, 10]: 29.8 h
Structure (SMILES): Cc1cc(CSC2=C(C(=O)[O-])N3C(=O)[C@H]([C@@H](C)O)C3[C@H]2C)cc(C)[n+]1C (stereo in doubt) [Example 51B, (5R,6S) 6-(1R-Hydroxyethyl)-4R-methyl-7-oxo-3-[(1,2,6-trimethylpyridinium-4-yl)-methylthio]-1-azabicyclo[3.2.0]hept-2-ene-2-carboxylate]

half-life at 100 µM [1, 10]: 13.4 h
Structure (SMILES): Cc1cc(CSC2=C(C(=O)[O-])N3C(=O)[C@H]([C@@H](C)O)[C@H]3C2)c[n+](C)c1 [Example 37]

half-life at 100 µM ([1]; pH 7.4 phosphate buffer, temperature not given, read-out: half-life in solution (converted)): 11 h
Structure (SMILES): Cc1c(CSC2=C(C(=O)[O-])N3C(=O)[C@H]([C@@H](C)O)[C@H]3C2)sc[n+]1C [Example 50]
